Results from PubChem BioAssay (NCI).
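96-well plates; 48 h exposure; 5 concentrations. Endpoints by linear interpolation between flanking doses. Not reached: highest tested concentration assigned. Here, GI50 denotes the concentration required for 50% inhibition of growth. TGI marks complete inhibition of growth.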

Tests used:
Assay in all cases: inhibition of tumour cell growth, NCI panel, 48 h
EKVX NSCLC = tested on: EKVX NSCLC
HCC-2998 colon = tested on: HCC-2998 colon
HT29 colon = tested on: HT29 colon
LOX IMVI melanoma = tested on: LOX IMVI melanoma
NCI-H460 lung = tested on: NCI-H460 lung
OVCAR-3 ovarian = tested on: OVCAR-3 ovarian
SK-MEL-28 melanoma = tested on: SK-MEL-28 melanoma
SR leukemia = tested on: SR leukemia

SMILES	TGI (EKVX NSCLC)	TGI (HCC-2998 colon)	TGI (HT29 colon)	TGI (LOX IMVI melanoma)	TGI (NCI-H460 lung)	TGI (OVCAR-3 ovarian)	TGI (SK-MEL-28 melanoma)	TGI (SR leukemia)	GI50 (EKVX NSCLC)	GI50 (HCC-2998 colon)	GI50 (HT29 colon)	GI50 (LOX IMVI melanoma)	GI50 (NCI-H460 lung)	GI50 (OVCAR-3 ovarian)	GI50 (SK-MEL-28 melanoma)	GI50 (SR leukemia)
COc1ccc2c(c1)[n+](=O)c(C(=O)C/C(=N/OCCCc1ccccc1)C(=O)NC13CC4CC(CC(C4)C1)C3)c(C)n2[O-]	> 100 µM	> 100 µM	> 100 µM	> 100 µM	> 100 µM	> 100 µM	> 100 µM	> 100 µM	–	–	–	–	–	–	–	–
COC(=O)Nc1nc2ccc(Oc3ccc(NC(=O)Nc4cc(C(F)(F)F)ccc4F)cc3)cc2s1	> 25 µM	> 25 µM	> 25 µM	> 25 µM	> 25 µM	> 25 µM	> 25 µM	> 25 µM	> 14.7 µM	> 25 µM	12.7 µM	3.65 µM	10.2 µM	> 23.9 µM	13.9 µM	5.66 µM
CC1(C)OC2=C(CC1Br)C(=O)C(=O)c1ccccc12 (configuration not stated)	3.47 µM	3.12 µM	5.25 µM	3.39 µM	3.96 µM	2.98 µM	3.24 µM	7.44 µM	1.71 µM	1.69 µM	2.4 µM	1 µM	2.08 µM	1.6 µM	1.82 µM	3.97 µM
COc1ccc2c(c1)CCCN2c1c2ccccc2nc2ccccc12	> 100 µM	1.04 µM	> 100 µM	12.1 µM	> 100 µM	0.75 µM	> 100 µM	> 100 µM	0.932 µM	0.311 µM	0.36 µM	0.505 µM	0.358 µM	0.275 µM	0.878 µM	0.383 µM
O=[N+]([O-])c1ccc(C=NC2CCCCC2)cc1	> 100 µM	> 100 µM	> 100 µM	> 100 µM	> 100 µM	> 100 µM	> 100 µM	> 100 µM	–	–	–	–	–	–	–	–
Cc1cc2c(cc1Cl)SC1=NN(C)S(=O)N1S2(=O)=O (configuration not stated)	> 100 µM	> 100 µM	> 100 µM	> 100 µM	> 100 µM	> 100 µM	> 100 µM	> 100 µM	> 100 µM	> 100 µM	> 100 µM	> 100 µM	> 100 µM	> 100 µM	> 100 µM	> 100 µM
CCCCCCCC(=O)OCC/C=C/C1OC1C1OC(=O)/C=C\C=C\c2nc(oc2C)/C=C(/C)CCC2OC2C1OC(=O)NC(C)=O (configuration not stated)	1.64 µM	0.0739 µM	1.12 µM	0.648 µM	0.495 µM	0.142 µM	0.159 µM	0.89 µM	0.0419 µM	0.0208 µM	0.0397 µM	0.0372 µM	0.0192 µM	0.0537 µM	0.0679 µM	0.0173 µM
CC(SC(=S)N1CCOCC1)c1cc2oc(=O)n(C)c2cc1Cl (configuration not stated)	> 100 µM	> 100 µM	> 100 µM	> 100 µM	> 100 µM	> 100 µM	> 100 µM	> 100 µM	–	–	–	–	–	–	–	–
COc1ccc(N2C(=O)/C(=C/c3ccc(N(CCC#N)CCC#N)cc3C)N=C2c2cc([N+](=O)[O-])ccc2Cl)cc1	> 46.4 µM	15.2 µM	9.95 µM	> 56.2 µM	> 56.2 µM	11.3 µM	> 63.1 µM	35.4 µM	–	–	–	–	–	–	–	–
